{"source": "patent US12065442B2", "about": "“Tropomyosin receptor kinase (TRK) degradation compounds and methods of use” (Cullgen (Shanghai), Inc., priority 2018, dated 2024)", "note": "Entries after “also recorded” stand apart in the source; their conditions may differ."}
{"test_system": "KM12 cells", "assay": "Cell viability assay (CellTiter-Glo) in KM12 cells", "format": "cell-based", "settings": "500 nM, 12-point 2-fold serial dilution, 3 days (FIG. 4A)"}
{"smiles": "O=C1CCC(N2C(=O)c3cccc(NCCOCCOCCOCCC(=O)N4CCN(c5cccc(-c6cnc7ccc(N8CCC[C@@H]8c8cccc(F)c8)nn67)n5)CC4)c3C2=O)C(=O)N1", "note": "(stereo partly drawn) [CPD-010, 2-(2,6-Dioxopiperidin-3-yl)-4-((2-(2-(2-(3-(4-(6-(6-((R)-2-(3-fluorophenyl)pyrrolidin-1-yl)imidazo[1,2-b]pyridazin-3-yl)pyridin-2-yl)piperazin-1-yl)-3-oxopropoxy)ethoxy)ethoxy)ethyl)amino)isoindoline-1,3-dione]", "viability of KM12 cells": "inhibited the viability; also recorded: dose-dependently suppressed viability"}
{"test_system": "KM12 cells", "assay": "Cell viability assay (CellTiter-Glo) in KM12 cells", "format": "cell-based", "settings": "Homo sapiens, 72 h; Table 2; KM12 cell viability, CellTiter-Glo, 3 days; read-out: IC50", "units": {"IC50": "nM"}}
{"smiles": "Cc1ncsc1-c1ccc(CNC(=O)[C@@H]2C[C@@H](O)CN2C(=O)[C@@H](NC(=O)CCCCCCCCCC(=O)N2CCN(c3ccc(C(=O)Nc4n[nH]c5ccc(Cc6cc(F)cc(F)c6)cc45)c(NC4CCOCC4)c3)CC2)C(C)(C)C)cc1", "note": "[CPD-035, (2S,4R)-1-((S)-2-(11-(4-(4-((5-(3,5-Difluorobenzyl)-1H-indazol-3-yl)carbamoyl)-3-((tetrahydro-2H-pyran-4-yl)amino)phenyl)piperazin-1-yl)-11-oxoundecanamido)-3,3-dimethylbutanoyl)-4-hydroxy-N-(4-(4-methylthiazol-5-yl)benzyl)pyrrolidine-2-carboxamide]", "IC50": 300}
{"smiles": "Cc1ncsc1-c1ccc(CNC(=O)[C@@H]2C[C@@H](O)CN2C(=O)[C@@H](NC(=O)CCOCCOCCOCCC(=O)N2CCN(c3ccc(C(=O)Nc4n[nH]c5ccc(Cc6cc(F)cc(F)c6)cc45)c(NC4CCOCC4)c3)CC2)C(C)(C)C)cc1", "note": "[CPD-039, (2S,4R)-1-((S)-2-(tert-butyl)-16-(4-(4-((5-(3,5-Difluorobenzyl)-1H-indazol-3-yl)carbamoyl)-3-((tetrahydro-2H-pyran-4-yl)amino)phenyl)piperazin-1-yl)-4,16-dioxo-7,10,13-trioxa-3-azahexadecanoyl)-4-hydroxy-N-(4-(4-methylthiazol-5-yl)benzyl)pyrrolidine-2-carboxamide]", "IC50": 222}
{"smiles": "O=C1CCC(N2C(=O)c3cccc(NCCCCC(=O)N4CCN(c5cccc(-c6cnc7ccc(N8CCC[C@@H]8c8cccc(F)c8)nn67)n5)CC4)c3C2=O)C(=O)N1", "note": "(stereo partly drawn) [CPD-014, 2-(2,6-Dioxopiperidin-3-yl)-4-((5-(4-(6-(6-((R)-2-(3-fluorophenyl)pyrrolidin-1-yl)imidazo[1,2-b]pyridazin-3-yl)pyridin-2-yl)piperazin-1-yl)-5-oxopentyl)amino)isoindoline-1,3-dione]", "IC50": 7.9}
{"smiles": "O=C1CCC(N2C(=O)c3cccc(NCCOCCOCCOCCC(=O)N4CCN(c5cccc(-c6cnc7ccc(N8CCC[C@@H]8c8cccc(F)c8)nn67)n5)CC4)c3C2=O)C(=O)N1", "note": "(stereo partly drawn) [CPD-010, 2-(2,6-Dioxopiperidin-3-yl)-4-((2-(2-(2-(3-(4-(6-(6-((R)-2-(3-fluorophenyl)pyrrolidin-1-yl)imidazo[1,2-b]pyridazin-3-yl)pyridin-2-yl)piperazin-1-yl)-3-oxopropoxy)ethoxy)ethoxy)ethyl)amino)isoindoline-1,3-dione]", "IC50": 30}
{"smiles": "Cc1ncsc1-c1ccc(CNC(=O)[C@@H]2C[C@@H](O)CN2C(=O)[C@@H](NC(=O)CNC(=O)CN2CCN(c3ccc(C(=O)Nc4n[nH]c5ccc(Cc6cc(F)cc(F)c6)cc45)c(NC4CCOCC4)c3)CC2)C(C)(C)C)cc1", "note": "[CPD-063, (2S,4R)-1-((S)-2-(2-(2-(4-(4-((5-(3,5-Difluorobenzyl)-1H-indazol-3-yl)carbamoyl)-3-((tetrahydro-2H-pyran-4-yl)amino)phenyl)piperazin-1-yl)acetamido)acetamido)-3,3-dimethylbutanoyl)-4-hydroxy-N-(4-(4-methylthiazol-5-yl)benzyl)pyrrolidine-2-carboxamide]", "IC50": "> 1000"}
{"smiles": "O=C1CCC(N2C(=O)c3cccc(NCCCCCC(=O)N4CCN(c5cccc(-c6cnc7ccc(N8CCC[C@@H]8c8cccc(F)c8)nn67)n5)CC4)c3C2=O)C(=O)N1", "note": "(stereo partly drawn) [CPD-015]", "IC50": 14.9}
{"smiles": "Cc1ncsc1-c1ccc(CNC(=O)[C@@H]2C[C@@H](O)CN2C(=O)[C@@H](NC(=O)CCCCCCCC(=O)N2CCN(c3cccc(-c4cnc5ccc(N6CCC[C@@H]6c6cccc(F)c6)nn45)n3)CC2)C(C)(C)C)cc1", "note": "[CPD-018, (2S,4R)-1-((S)-2-(9-(4-(6-(6-((R)-2-(3-Fluorophenyl)pyrrolidin-1-yl)imidazo[1,2-b]pyridazin-3-yl)pyridin-2-yl)piperazin-1-yl)-9-oxononanamido)-3,3-dimethylbutanoyl)-4-hydroxy-N-(4-(4-methylthiazol-5-yl)benzyl)pyrrolidine-2-carboxamide]", "IC50": 258}
{"test_system": "KM12 cells", "assay": "Cell viability assay (CellTiter-Glo) in KM12 cells", "format": "cell-based", "settings": "Homo sapiens, 72 h; Table 3; KM12 cell viability, CellTiter-Glo, 3 days; read-out: IC50", "units": {"IC50": "nM"}}
{"smiles": "O=C1CCC(N2C(=O)c3ccc(NCCCCC(=O)N4CCN(c5cccc(-c6cnc7ccc(N8CCC[C@@H]8c8cccc(F)c8)nn67)n5)CC4)cc3C2=O)C(=O)N1", "note": "(stereo partly drawn) [TR-115, 2-(2,6-Dioxopiperidin-3-yl)-5-((5-(4-(6-(6-((R)-2-(3-fluorophenyl)pyrrolidin-1-yl)imidazo[1,2-b]pyridazin-3-yl)pyridin-2-yl)piperazin-1-yl)-5-oxopentyl)amino)isoindoline-1,3-dione]", "IC50": 0.9}
{"smiles": "O=C1CCC(N2C(=O)c3ccc(NCCNC4CN(c5cccc(-c6cnc7ccc(N8CCC[C@@H]8c8cccc(F)c8)nn67)n5)C4)cc3C2=O)C(=O)N1", "note": "(stereo partly drawn) [TR-192, 2-(2,6-Dioxopiperidin-3-yl)-5-((2-((1-(6-(6-((R)-2-(3-fluorophenyl)pyrrolidin-1-yl)imidazo[1,2-b]pyridazin-3-yl)pyridin-2-yl)azetidin-3-yl)amino)ethyl)amino)isoindoline-1,3-dione]", "IC50": 103}
{"smiles": "O=C1CCC(N2C(=O)c3ccc(NCCOCCOCCC(=O)N4CCN(c5ccc(C(=O)Nc6n[nH]c7ccc(Cc8cc(F)cc(F)c8)cc67)c(NC6CCOCC6)c5)CC4)cc3C2=O)C(=O)N1", "note": "(stereo not drawn) [TR-141, N-(5-(3,5-Difluorobenzyl)-1H-indazol-3-yl)-4-(4-(3-(2-(2-((2-(2,6-dioxopiperidin-3-yl)-1,3-dioxoisoindolin-5-yl)amino)ethoxy)ethoxy)propanoyl)piperazin-1-yl)-2-((tetrahydro-2H-pyran-4-yl)amino)benzamide]", "IC50": 2.6}
{"smiles": "O=C(CN1CCN(c2ccc(C(=O)Nc3n[nH]c4ccc(Cc5cc(F)cc(F)c5)cc34)c(NC3CCOCC3)c2)CC1)NCCCCCCCNc1cccc2c1C(=O)N(C1CCC(=O)NC1=O)C2=O", "note": "(stereo not drawn) [TR-154, N-(5-(3,5-Difluorobenzyl)-1H-indazol-3-yl)-4-(4-(2-((7-((2-(2,6-dioxopiperidin-3-yl)-1,3-dioxoisoindolin-4-yl)amino)heptyl)amino)-2-oxoethyl)piperazin-1-yl)-2-((tetrahydro-2H-pyran-4-yl)amino)benzamide]", "IC50": 20.8}
{"smiles": "O=C1CCC(N2C(=O)c3ccc(NCCCCCCCC(=O)N4CCN(c5ccc(C(=O)Nc6n[nH]c7ccc(Cc8cc(F)cc(F)c8)cc67)c(NC6CCOCC6)c5)CC4)cc3C2=O)C(=O)N1", "note": "(stereo not drawn) [TR-136, N-(5-(3,5-Difluorobenzyl)-1H-indazol-3-yl)-4-(4-(8-((2-(2,6-dioxopiperidin-3-yl)-1,3-dioxoisoindolin-5-yl)amino)octanoyl)piperazin-1-yl)-2-((tetrahydro-2H-pyran-4-yl)amino)benzamide]", "IC50": 23.6}
{"smiles": "O=C1CCC(N2C(=O)c3ccc(NCCOCCOCCOCCC(=O)N4CCN(c5cccc(-c6cnc7ccc(N8CCC[C@@H]8c8cccc(F)c8)nn67)n5)CC4)cc3C2=O)C(=O)N1", "note": "(stereo partly drawn) [TR-114, 2-(2,6-Dioxopiperidin-3-yl)-5-((2-(2-(2-(3-(4-(6-(6-((R)-2-(3-fluorophenyl)pyrrolidin-1-yl)imidazo[1,2-b]pyridazin-3-yl)pyridin-2-yl)piperazin-1-yl)-3-oxopropoxy)ethoxy)ethoxy)ethyl)amino)isoindoline-1,3-dione]", "IC50": 16.9}
{"smiles": "OC1CCN(c2cc(-c3cccc(-c4cnc5ccc(N6CCC[C@@H]6c6cccc(F)c6)nn45)n3)ccn2)CC1", "note": "[GNF-8625, reference compound]", "IC50": 46.7}
{"smiles": "O=C(CN1CCN(c2ccc(C(=O)Nc3n[nH]c4ccc(Cc5cc(F)cc(F)c5)cc34)c(NC3CCOCC3)c2)CC1)NCCOCCOCCNc1cccc2c1C(=O)N(C1CCC(=O)NC1=O)C2=O", "note": "(stereo not drawn) [TR-153, N-(5-(3,5-Difluorobenzyl)-1H-indazol-3-yl)-4-(4-(2-((2-(2-(2-((2-(2,6-dioxopiperidin-3-yl)-1,3-dioxoisoindolin-4-yl)amino)ethoxy)ethoxy)ethyl)amino)-2-oxoethyl)piperazin-1-yl)-2-((tetrahydro-2H-pyran-4-yl)amino)benzamide]", "IC50": 6.3}
{"smiles": "CN1CCN(c2ccc(C(=O)Nc3n[nH]c4ccc(Cc5cc(F)cc(F)c5)cc34)c(NC3CCOCC3)c2)CC1", "note": "[Entrectinib, entrectinib, reference compound]", "IC50": 4.3}
{"smiles": "O=C1CCC(N2C(=O)c3ccc(NCCCCC(=O)N4CCN(c5ccc(C(=O)Nc6n[nH]c7ccc(Cc8cc(F)cc(F)c8)cc67)c(NC6CCOCC6)c5)CC4)cc3C2=O)C(=O)N1", "note": "(stereo not drawn) [TR-142, N-(5-(3,5-Difluorobenzyl)-1H-indazol-3-yl)-4-(4-(5-((2-(2,6-dioxopiperidin-3-yl)-1,3-dioxoisoindolin-5-yl)amino)pentanoyl)piperazin-1-yl)-2-((tetrahydro-2H-pyran-4-yl)amino)benzamide]", "IC50": 3.4}
{"smiles": "O=C1CCC(N2C(=O)c3ccc(NCCCCCCC(=O)N4CCN(c5cccc(-c6cnc7ccc(N8CCC[C@@H]8c8cccc(F)c8)nn67)n5)CC4)cc3C2=O)C(=O)N1", "note": "(stereo partly drawn) [TR-117, 2-(2,6-Dioxopiperidin-3-yl)-5-((7-(4-(6-(6-((R)-2-(3-fluorophenyl)pyrrolidin-1-yl)imidazo[1,2-b]pyridazin-3-yl)pyridin-2-yl)piperazin-1-yl)-7-oxoheptyl)amino)isoindoline-1,3-dione]", "IC50": 4.3}
{"test_system": "KM12 cells", "assay": "Cell viability assay (CellTiter-Glo) in KM12 cells", "format": "cell-based", "settings": "Homo sapiens, 72 h; Table 4; KM12 cell viability, CellTiter-Glo, 3 days; read-out: IC50", "units": {"IC50": "nM"}}
{"smiles": "O=C1CCC(N2C(=O)c3ccc(NC(=O)C4CN(c5cccc(-c6cnc7ccc(N8CCC[C@@H]8c8cccc(F)c8)nn67)n5)C4)cc3C2=O)C(=O)N1", "note": "(stereo partly drawn) [TR-209, N-(2-(2,6-Dioxopiperidin-3-yl)-1,3-dioxoisoindolin-5-yl)-1-(6-(6-((R)-2-(3-fluorophenyl)pyrrolidin-1-yl)imidazo[1,2-b]pyridazin-3-yl)pyridin-2-yl)azetidine-3-carboxamide]", "IC50": "> 500"}
{"smiles": "O=C1CCC(N2C(=O)c3ccc(NC(=O)C4CCN(c5cccc(-c6cnc7ccc(N8CCC[C@@H]8c8cccc(F)c8)nn67)n5)CC4)cc3C2=O)C(=O)N1", "note": "(stereo partly drawn) [TR-215, N-(2-(2,6-Dioxopiperidin-3-yl)-1,3-dioxoisoindolin-5-yl)-1-(6-(6-((R)-2-(3-fluorophenyl)pyrrolidin-1-yl)imidazo[1,2-b]pyridazin-3-yl)pyridin-2-yl)piperidine-4-carboxamide]", "IC50": "> 500"}
